Entries after “also recorded” stand apart in the source; their conditions may differ.

For assay [1], the system named is BAX gene transcription in brain of APP/PS1 mice. The assay is described as follows: Real-time RT-PCR of mice brain, BAX. It is filed as in vivo. As for the experimental part: (§1) Five months old male APP/PS1 mice, weighing 25–33 g, were purchased from Guangdong Medical Laboratory Animal Center and housed in the Laboratory Animal Center of Sun Yat-sen University (Guangzhou, China) for experimentation. […] The mice were housed in a specific pathogen-free environment with a controlled temperature of 22 ± 1 °C and a 12-h dark/light cycle. The mice were fed with a standard diet, and 30 mice were randomly divided into 6 groups (N = 5). […] Behavioral experiments were then conducted, and tissue specimens were collected for biochemical analysis.
(§2) ^a -∆∆Ct = -[(Ct value of genes in treated sample - Ct value of genes in control) - (Ct value of β-actin in treated sample - Ct value of β-actin in control)]. ^b F: The relative expression fold.
(§3) Following sample homogenization, chloroform was added, and the solution was allowed to have phase separation into an upper aqueous layer (containing RNA), an interphase, and a lower organic layer (containing DNA and proteins). RNA was precipitated from the aqueous phase using isopropanol, while DNA was precipitated from the aqueous-organic interphase using ethanol.
(§4) Quantitative real-time polymerase chain reaction (qRT-PCR) was performed using the 2× RealStar SYBR Mixture (GenStar, Cat# A301-10, Guangzhou, China) on a LightCycler 480 II real-time PCR system (Roche, USA). Data were analyzed using the 2^−ΔΔCt method. Actin served as the internal control, and relative mRNA levels were normalized accordingly.
On the technique in general: Quantitative PCR measures a nucleic acid by following its amplification.

The next assay deals with BCL-2 i-motif. Briefly: CD spectra of BCL-2 i-motif. It is filed as binding. As for the experimental part: Figure S5. ESI-MS, UV, CD, and EMSA experiments were performed to examine the effect of B14 on BCL-2 promoter i-motif and G-quadruplex. (A) ESI-MS experiment for oligomer BCL-2 G4 alone, which was annealed in 1 × BPES buffer at pH 7.4. (B) ESI-MS experiment for above oligomer BCL-2 G4 with addition of B14 in 1 × BPES buffer at pH 7.4. (C-D) TO displacement with increasing amount of oligomer BCL-2 i-motif annealed in 1 X BPES buffer at pH 5.5 in the presence of 20 equivalents of B14 or A22. (E) EMSA experiment was performed for the effect of B14 on inducing BCL-2 i-motif formation. The lanes from left to right were as follow: BCL-2 i-motif alone at pH 5.5; BCL-2 i-motif alone at pH 6.2; BCL-2 i-motif plus 1 eq B14 at pH 6.2; BCL-2 i-motif plus 5 eq B14 at pH 6.2; BCL-2 i-motif plus 10 eq B14 at pH 6.2. (F) CD experiment was performed to study the interaction of B14 or A22 with BCL-2 promoter i-motif.
CD measurements were performed on a Chirascan circular dichroism spectrophotometer (Chirascan, England). A 10 mm path length quartz cuvette was used to record the spectra with a wavelength range of 230-350 nm with a 1 nm bandwidth. CD and CD melting experiments were performed at a fixed i-motif or G-quadruplex concentration (1 μM) with or without a fixed concentration (20 μM) of B14 and Curcumin in different buffers. […]

The target in the next assay is T1, Aβ1-42 (Homo sapiens, UniProt P05067).
T1 construct: Aβ1-42 was purchased from Gill Biochemicals Ltd (Shanghai, China); purchased Gill Biochemicals Ltd (Shanghai, China)
T1 sequence (P05067 672-713 limits assumed): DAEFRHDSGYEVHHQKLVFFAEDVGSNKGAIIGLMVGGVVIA
Briefly: Thioflavine T (ThT) assay of self-induced Aβ1-42 aggregation. It is filed as biochemical. As for the experimental part:
The experiment was performed following standardized amyloid detection protocols without significant modification. Curcumin (Aladdin, Shanghai, China), a natural inhibitor of Aβ deposition, was used as a positive control with ThT (Aladdin, Shanghai, China) as a fluorescent indicator. 30 μL of freshly formulated Aβ1-42 (30 μM) was incubated without or with A1-16, B1-14, Curcumin at concentration of 40 μM for 24h. Then, it was mixed with 400 μL of freshly formulated ThT (15 μM), which was incubated in the dark for 30 min. Fluorescence signals were recorded using a fluorescence spectrophotometer, and changes in Aβ fibre deposition were determined through the strength of the fluorescence signals. The scanning conditions were set as follows: excitation wavelength at 440 nm, emission wavelength at 480 nm, and slit width of 20 nm.
^a Self-induced Aβ1-42 aggregation (means ± SD of three experiments). The thioflavin-T fluorescence method was used, and the measurements were carried out in the presence of 40 μM test compound. […]
[picture] […] The fluorescence intensity of different concentrations of B14 was measured after incubation with Aβ1-42. Data were statistically analyzed as mean ± SEM. (A) ThT fluorescence intensity. (B) IC50 value for B14 against Aβ1-42 aggregation was determined by using ThT fluorescence intensity.

Assay [2] relates to BCL-2 gene transcription in brain of APP/PS1 mice. Briefly: Real-time RT-PCR of mice brain, BCL-2. It is filed as in vivo. The settings on record: for F = 2^-∆∆Ct (relative expression fold), BCL-2: relative to WT. As for the experimental part:
as §1, §2, §3, §4

In assay [3] the test system is BCL-2 (BCL-2 IM) (DNA, i motif) CAGCCCCGCTCCCGCCCCCTTCCTCCCGCGCCCGCCCCT
Briefly: CD melting, 287 nm. The conditions noted are these: K+ 100 mM KCl plus potassium phosphate; BPES buffer, pH 5.5; 20 μM B14 (DNA 1, 2 or 5 μM, prints disagree).

Assay [4] deals with Aβ1-42 aggregation in SH-SY5Y cells. Briefly: Fluorescence imaging of intracellular Aβ1-42 accumulation (ThT). It is filed as cell-based. The settings on record: 25 μM Aβ1-42; 25 μM B14, 48 h. As for the experimental part:
SH-SY5Y cells were seeded in a 96-well plate (6000 cells/well) in 100 μL medium. After the cells adhered to the wall, SH-SY5Y cells were incubated with serum-free medium containing 25 μM Aβ1-42 for 6 h to allow for the uptake of Aβ1-42 into the cells. Then solutions of B14 at different concentrations were added to the cells, with the mixtures incubated for 48 h. After being washed for three times with pre-cooled PBS, the cells were fixed with freshly prepared 4 % paraformaldehyde (Servicebio, Guangzhou, China) for 10 min at room temperature. After being washed for three times with pre-cooled PBS, the cells were incubated with ThT solution for 20 min at 25 °C in the dark. After washing for three times with pre-cooled PBS, the cells were stained with 10 μg/mL Hoechst 33342 solution (Aladdin, Shanghai, China) for 20 min at 25 °C in the dark. After washing for three times with pre-cooled PBS, the stained cells were observed and photographed with a FV3000 (Olympus, Japan) fluorescence microscope.

What is called inhibition is the relative decrease from the control value, in per cent. For orientation: IC50 means the point on the concentration scale where inhibition reaches its midpoint. As usually defined, the ΔTm is the change in melting temperature against a reference sample. `O=C(CCN1CCOCC1)Nc1ccc2c(c1)c(=O)c1cc(NC(=O)CCN3CCOCC3)ccc1n2-c1ccc2occc2c1` [Compound B14]: the “-∆∆Ct, BAX” value is listed as -0.16 in assay [1] (10 mg/kg), 0.08 in assay [1] (20 mg/kg) and 0.21 in assay [1] (40 mg/kg). Besides, the “F = 2^-∆∆Ct (relative expression fold), BAX” value is 1.11 in assay [1] (10 mg/kg), 0.94 in assay [1] (20 mg/kg) and 0.86 in assay [1] (40 mg/kg). The “CD absorption peak of BCL-2 i-motif” value in the assay on BCL-2 i-motif is “stronger effect than A22; also recorded: apparently enhanced absorption peak at 286 nm”. Moreover, at Aβ1-42 (40 μM compound, ThT fluorescence, read-out: inhibition of Aβ self-aggregation), the inhibition at 40 µM was 78.4%. In addition, the IC50 at Aβ1-42 (ThT fluorescence intensity, read-out: IC50 against Aβ1-42 aggregation) turned out to be 24 µM. The “-∆∆Ct, BCL-2” value is given as 0.39 in assay [2] (10 mg/kg), 0.17 in assay [2] (20 mg/kg) and -0.01 in assay [2] (40 mg/kg). Moreover, the figures for the “F = 2^-∆∆Ct (relative expression fold), BCL-2” value in assay [2] (10 mg/kg), in assay [2] (20 mg/kg) and in assay [2] (40 mg/kg) were 0.76, 0.88 and 1.00, respectively. In addition, the thermal shift (ΔTm) in assay [3] came out at 11.26 °C. In addition, the “ThT fluorescence of SH-SY5Y cells (intracellular Aβ1-42 aggregation)” value in assay [4] is on record as “almost completely disappeared”.

Source of the values: article PMC11982498 (Redox Biology, 2025).
